Source: patent publication US12202849B2, “Crystalline forms of tenofovir alafenamide” (Gilead Sciences, Inc., priority 2017, dated 2025)

Conditions: deionized water, approximately 22° C., room temperature
Protocol: In a vial that contains pre-weighed amount of solid, deionized water was added in small increments at approximately 22° C. The solid/liquid mixture was agitated by a vortex mixer and held at room temperature. Continued to add deionized water and repeated the mixing until the solid was fully dissolved.

Substance “tenofovir alafenamide hemifumarate [TAF Hemifumarate]” has a Solubility of 20 mg/mL.
